# Experimental data taken from patent publication US7396837B2, “Antitumoral analogs of lamellarins” (Pharma Mar, S.A.U., priority 2002, dated 2008).
# Read-outs that look alike come from different tables or passages of the source.
# Columns and labels:
# [1] = system: HT-29; experiment: SRB colorimetric cell growth inhibition assay, HT-29; type: cell-based; settings: for GI50: GI=growth inhibition, read-out: GI50 HT-29; for CC50: cell killing (cytotoxic effect)
# Method in brief: (§1)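 Cancer cells grown in vitro were continuously treated with compound. Cell mass was then determined by SRB staining and expressed as growth inhibition.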
# [2] = system: SKOV-3; experiment: SRB colorimetric cell growth inhibition assay, SKOV-3; type: cell-based; settings: SKOV-3
# From the text: (§2) A colorimetric type of assay, using sulforhodamine B (SRB) reaction has been adapted for a quantitative measurement of cell growth and viability (following the technique described by P. A. Skehan, et al., J. Natl. Cancer Inst. 1990, 82, 1107-1112).
# (§3) This form of assay employs 96 well cell culture microplates of 9 mm diameter (T. Mosmann et al., J. of Immunological Methods 1983, 65, 55-63; G. T. Faircloth et al., J. of Tissue and Culture Methods 1988, 11, 201-205).
# (§4) Most of the cell lines are obtained from American Type Culture Collection (ATCC) derived from different human cancer types.
# (§5) The values for mean +/− SD of data from triplicate wells are calculated. Some parameters for cellular responses can be calculated: GI=growth inhibition, TGI=total growth inhibition (cytostatic effect) and LC=cell killing (cytotoxic effect).
# [3] = system: LoVo-Dox; experiment: SRB colorimetric cell growth inhibition assay, LoVo-Dox (MDR); type: cell-based; settings: for GI50: GI=growth inhibition, read-out: GI50 LOVO-DOX; for CC50: cell killing (cytotoxic effect)
# Method in brief: as §1
# [4] = system: LoVo; experiment: SRB colorimetric cell growth inhibition assay, LoVo; type: cell-based; settings: for GI50: GI=growth inhibition, read-out: GI50 LOVO; for CC50: cell killing (cytotoxic effect)
# Method in brief: as §1
# [5] = system: IGROV-ET; experiment: SRB colorimetric cell growth inhibition assay, IGROV-ET (ET-743 resistant); type: cell-based; settings: for GI50: GI=growth inhibition, read-out: GI50 IGROV-ET; for TGI IGROV-ET: total growth inhibition (cytostatic effect)
# Method in brief: as §1
# [6] = system: DU-145; experiment: SRB colorimetric cell growth inhibition assay, DU-145; type: cell-based; settings: for GI50: GI=growth inhibition, read-out: GI50 DU-145; for TGI DU-145: total growth inhibition (cytostatic effect)
# Method in brief: as §1
# [7] = system: SK-BR-3; experiment: SRB colorimetric cell growth inhibition assay, SK-BR-3; type: cell-based; settings: for GI50: GI=growth inhibition, read-out: GI50 SK-BR-3; for TGI SK-BR-3: total growth inhibition (cytostatic effect)
# Method in brief: as §1
# [8] = system: PANC-1; experiment: SRB colorimetric cell growth inhibition assay, PANC-1; type: cell-based; settings: for GI50: GI=growth inhibition, read-out: GI50 PANC-1; for CC50: cell killing (cytotoxic effect)
# Method in brief: as §1
# [9] = system: K-562; experiment: SRB colorimetric cell growth inhibition assay, K-562; type: cell-based; settings: for GI50: GI=growth inhibition, read-out: GI50 K-562; for CC50: cell killing (cytotoxic effect)
# Method in brief: as §1
# [10] = system: LNCaP; experiment: SRB colorimetric cell growth inhibition assay, LNCaP; type: cell-based; settings: for GI50: GI=growth inhibition, read-out: GI50 LN-caP; for TGI LN-caP: total growth inhibition (cytostatic effect)
# Method in brief: as §1
# [11] = system: H-MEC-1; experiment: SRB colorimetric cell growth inhibition assay, H-MEC-1; type: cell-based; settings: H-MEC-1
# From the text: as §2, §3, §4, §5
# [12] = target: T1, human topoisomerase I (Homo sapiens, UniProt P11387); experiment: Topoisomerase I DNA relaxation assay (supercoiled plasmid DNA); type: biochemical; settings: supercoiled plasmid DNA, each compound tested at 1 μM, agarose gel with ethidium bromide
# T1 sequence (P11387 1-765): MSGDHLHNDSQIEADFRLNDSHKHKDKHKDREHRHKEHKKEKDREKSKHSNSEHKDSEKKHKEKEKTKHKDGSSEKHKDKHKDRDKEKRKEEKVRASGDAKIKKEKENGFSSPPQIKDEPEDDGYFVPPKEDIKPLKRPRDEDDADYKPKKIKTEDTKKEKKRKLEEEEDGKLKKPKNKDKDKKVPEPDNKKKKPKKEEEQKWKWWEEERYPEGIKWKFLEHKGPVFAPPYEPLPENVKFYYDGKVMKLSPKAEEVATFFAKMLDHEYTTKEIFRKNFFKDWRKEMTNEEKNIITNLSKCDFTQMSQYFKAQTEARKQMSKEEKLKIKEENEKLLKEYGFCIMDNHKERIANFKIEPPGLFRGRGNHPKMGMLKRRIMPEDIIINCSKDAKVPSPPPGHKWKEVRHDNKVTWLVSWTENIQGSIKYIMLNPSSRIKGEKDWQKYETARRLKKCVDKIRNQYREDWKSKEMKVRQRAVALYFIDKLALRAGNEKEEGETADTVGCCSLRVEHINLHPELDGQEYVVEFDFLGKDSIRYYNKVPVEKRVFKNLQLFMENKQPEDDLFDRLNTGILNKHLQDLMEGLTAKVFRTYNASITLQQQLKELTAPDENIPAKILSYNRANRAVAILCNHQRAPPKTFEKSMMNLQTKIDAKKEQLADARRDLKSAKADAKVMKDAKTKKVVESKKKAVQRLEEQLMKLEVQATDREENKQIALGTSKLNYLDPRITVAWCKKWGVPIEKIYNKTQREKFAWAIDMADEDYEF
# Protocol: Two assays, based on DNA relaxation and DNA cleavage (Bailly, C. DNA relaxation and cleavage assays to study topoisomerase I inhibitors. Methods Enzymol. 2001, 340, 610-623) were used evaluate the effects of the lamellarin analogs on the catalytic activity of human topoisomerase I.
# In the first assay, a supercoiled plasmid DNA was relaxed with topoisomerase I in the absence or presence of the test compounds, each tested at 1 μM. DNA relaxation products were then resolved by gel electrophoresis on agarose gels containing ethidium bromide to stain the DNA.
# [13] = system: IGROV; experiment: SRB colorimetric cell growth inhibition assay, IGROV; type: cell-based; settings: for GI50: GI=growth inhibition, read-out: GI50 IGROV; for TGI IGROV: total growth inhibition (cytostatic effect)
# Method in brief: as §1
# [14] = system: A-549; experiment: SRB colorimetric cell growth inhibition assay, A-549; type: cell-based; settings: for GI50: GI=growth inhibition, read-out: GI50 A-549; for CC50: cell killing (cytotoxic effect)
# Method in brief: as §1
# [15] = system: SK-MEL-28; experiment: SRB colorimetric cell growth inhibition assay, SK-MEL-28; type: cell-based; settings: for GI50: GI=growth inhibition, read-out: GI50 MEL-28; for TGI MEL-28: total growth inhibition (cytostatic effect)
# Method in brief: as §1
# [16] = total growth inhibition (cytostatic effect)
smiles,measurement,setting,value
COc1cc(-c2c3n(c4c(=O)oc5cc(OS(C)(=O)=O)c(OC)cc5c24)CCc2cc(OS(C)(=O)=O)c(OC)cc2-3)ccc1OS(C)(=O)=O [Compound 22],GI50,[1]; HT-29,0.879 µM
same,CC50,"[1]; HT-29, read-out: LC50 HT-29",13.6 µM
same,TGI HT-29,"[1]; HT-29, total growth inhibition (cytostatic effect)",1.36E−05 Molar
same,GI50,"[2]; GI=growth inhibition, read-out: GI50 SKOV-3",0.201 µM
same,LC50 (concentration causing 50% net cell killing),"[2]; cell killing (cytotoxic effect), read-out: LC50 SKOV-3",13.6 µM
same,TGI SKOV-3,[2]; [16],2.22E−06 Molar
same,GI50,[3]; LOVO-DOX,6.59 µM
same,CC50,"[3]; LOVO-DOX, read-out: LC50 LOVO-DOX",13.6 µM
same,TGI LOVO-DOX,"[3]; LOVO-DOX, total growth inhibition (cytostatic effect)",1.36E−05 Molar
same,GI50,[4]; LOVO,0.484 µM
same,CC50,"[4]; LOVO, read-out: LC50 LOVO",13.6 µM
same,TGI LOVO,"[4]; LOVO, total growth inhibition (cytostatic effect)",2.49E−06 Molar
same,GI50,[5]; IGROV-ET,2.89 µM
same,CC50,"[5]; IGROV-ET, cell killing (cytotoxic effect), read-out: LC50 IGROV-ET",13.6 µM
same,TGI IGROV-ET,[5]; IGROV-ET,1.36E−05 Molar
same,GI50,[6]; DU-145,0.743 µM
same,CC50,"[6]; DU-145, cell killing (cytotoxic effect), read-out: LC50 DU-145",13.6 µM
same,TGI DU-145,[6]; DU-145,8.10E−06 Molar
same,GI50,[7]; SK-BR-3,0.257 µM
same,CC50,"[7]; SK-BR-3, cell killing (cytotoxic effect), read-out: LC50 SK-BR-3",7.16 µM
same,TGI SK-BR-3,[7]; SK-BR-3,1.81E−06 Molar
same,GI50,[8]; PANC-1,0.976 µM
same,CC50,"[8]; PANC-1, read-out: LC50 PANC-1",13.6 µM
same,TGI PANC-1,"[8]; PANC-1, total growth inhibition (cytostatic effect)",1.36E−05 Molar
same,GI50,[9]; K-562,0.67 µM
same,CC50,"[9]; K-562, read-out: LC50 K-562",13.6 µM
same,TGI K-562,"[9]; K-562, total growth inhibition (cytostatic effect)",4.77E−06 Molar
same,GI50,[10]; LN-caP,0.564 µM
same,CC50,"[10]; LN-caP, cell killing (cytotoxic effect), read-out: LC50 LN-caP",13.6 µM
same,TGI LN-caP,[10]; LN-caP,1.82E−06 Molar
same,GI50,"[11]; GI=growth inhibition, read-out: GI50 H-MEC-1",0.856 µM
same,LC50 (concentration giving 50% net cell killing),[11]; cell killing (cytotoxic effect),10.4 µM
same,TGI H-MEC-1,[11]; [16],2.91E−06 Molar
same,stimulation of DNA cleavage by topoisomerase I / inhibition of topoisomerase I (nicked DNA band) in DNA relaxation assay,[12],inactive
same,GI50,[13]; IGROV,0.787 µM
same,CC50,"[13]; IGROV, cell killing (cytotoxic effect), read-out: LC50 IGROV",13.6 µM
same,TGI IGROV,[13]; IGROV,8.54E−06 Molar
same,GI50,[14]; A-549,0.89 µM
same,CC50,"[14]; A-549, read-out: LC50 A-549",13.6 µM
same,TGI A-549,"[14]; A-549, total growth inhibition (cytostatic effect)",7.73E−06 Molar
same,GI50,[15]; MEL-28,0.332 µM
same,CC50,"[15]; MEL-28, cell killing (cytotoxic effect), read-out: LC50 MEL-28",13.6 µM
same,TGI MEL-28,[15]; MEL-28,3.56E−06 Molar
COc1cc(-c2c3n(c4c(=O)oc5cc(OC(=O)[C@@H](N)C(C)C)c(OC)cc5c24)CCc2cc(OC(=O)[C@@H](N)C(C)C)c(OC)cc2-3)ccc1OC(=O)[C@@H](N)C(C)C [Compound 135],GI50,[1]; HT-29,1.15 µM
same,IC (TGI),"[1]; Homo sapiens, HT-29, HT-29, total growth inhibition (cytostatic effect), read-out: TGI HT-29",4.82 µM
same,CC50,"[1]; Homo sapiens, HT-29, read-out: LC50 HT-29, HT-29",8.76 µM
same,IC (TGI),"[3]; Homo sapiens, LOVO-DOX, total growth inhibition (cytostatic effect), read-out: TGI LOVO-DOX",8.76 µM
same,CC50,"[3]; Homo sapiens, read-out: LC50 LOVO-DOX, LOVO-DOX",8.76 µM
same,GI50,[3]; LOVO-DOX,3.8 µM
same,CC50,"[4]; Homo sapiens, LoVo, read-out: LC50 LOVO, LOVO",8.76 µM
same,IC (TGI),"[4]; Homo sapiens, LOVO, total growth inhibition (cytostatic effect), read-out: TGI LOVO",8.76 µM
same,GI50,[4]; LOVO,2.69 µM
same,GI50,[5]; IGROV-ET,0.586 µM
same,TGI IGROV-ET,[5]; IGROV-ET,1.98E−06 Molar
same,CC50,[5]; human,6.33 µM
same,GI50,[6]; DU-145,1.6 µM
same,TGI DU-145,[6]; DU-145,3.78E−06 Molar
same,CC50,[6]; human,8.76 µM
same,GI50,[7]; SK-BR-3,0.579 µM
same,TGI SK-BR-3,[7]; SK-BR-3,2.61E−06 Molar
same,CC50,[7]; human,8.76 µM
same,IC (TGI),"[8]; Homo sapiens, PANC-1, PANC-1, total growth inhibition (cytostatic effect), read-out: TGI PANC-1",5.53 µM
same,CC50,"[8]; Homo sapiens, PANC-1, read-out: LC50 PANC-1, PANC-1",8.76 µM
same,GI50,[8]; PANC-1,2.11 µM
same,IC (TGI),"[9]; Homo sapiens, K562, K-562, total growth inhibition (cytostatic effect), read-out: TGI K-562",6.82 µM
same,CC50,"[9]; Homo sapiens, K562, read-out: LC50 K-562, K-562",8.76 µM
same,GI50,[9]; K-562,1.07 µM
same,GI50,[10]; LN-caP,0.783 µM
same,TGI LN-caP,[10]; LN-caP,2.02E−06 Molar
same,CC50,[10]; human,4.91 µM
same,stimulation of DNA cleavage by topoisomerase I / inhibition of topoisomerase I (nicked DNA band) in DNA relaxation assay,[12],No effect
same,GI50,[13]; IGROV,2.1 µM
same,TGI IGROV,[13]; IGROV,4.68E−06 Molar
same,CC50,[13]; human,8.76 µM
same,GI50,[14]; A-549,3.34 µM
same,IC (TGI),"[14]; Homo sapiens, A549, A-549, total growth inhibition (cytostatic effect), read-out: TGI A-549",8.76 µM
same,CC50,"[14]; Homo sapiens, A549, read-out: LC50 A-549, A-549",8.76 µM
same,GI50,[15]; MEL-28,1.67 µM
same,TGI MEL-28,[15]; MEL-28,5.00E−06 Molar
same,CC50,[15]; human,8.76 µM
COc1cc(-c2c3n(c4c(=O)oc5cc(OC(=O)[C@@H](NC(=O)OC(C)(C)C)C(C)C)c(OC)cc5c24)CCc2cc(OC(=O)[C@@H](NC(=O)OC(C)(C)C)C(C)C)c(OC)cc2-3)ccc1OC(=O)[C@@H](NC(=O)OC(C)(C)C)C(C)C [Compound 144],stimulation of DNA cleavage by topoisomerase I / inhibition of topoisomerase I (nicked DNA band) in DNA relaxation assay,[12],No effect
